Assay results published in ChEMBL document CHEMBL1157539, “Thousands of chemical starting points for antimalarial lead identification” (Nature, 2010).

test system: Plasmodium falciparum; experiment: GSK_TCMDC: Inhibition of Plasmodium falciparum 3D7 in whole erythrocytes, using parasite LDH activity as an index of growth.; format: functional, organism-based; settings: Plasmodium falciparum, 3D7

| SMILES | XC50 [nM] |
| --- | --- |
| CC(=O)c1ccc(NC(=O)Nc2ccc(N(C)c3ccnc(Nc4cccc(CS(C)(=O)=O)c4)n3)cc2)cc1 | 122 |
| CC(C)N1CCC(N(Cc2ccc(-c3ccc(C(F)(F)F)cc3)cc2)C(=O)Cn2c(SCc3cccc(F)c3F)cc(=O)c3c2CCC3)CC1 | 1160 |
| Nc1nc(N)c2c3c(ccc2n1)CCC3 | 928 |
| CCN(CC)CCNc1cc(C)nc(NC(=N)Nc2ccc(Cl)cc2)n1 | 130 |
| COc1ccc(C(O)CNC(C)CCc2ccc(F)cc2)cc1C(F)(F)F (stereo not given) | 747 |
| COc1ccc(NC(=O)Nc2cccc(-c3ccc(-c4nc5cc(C(F)(F)F)ccc5[nH]4)cc3)c2)cc1 | 452 |
| O=C(Cc1ccc(NC(=O)c2ccc(O)c(-c3ccc(Cl)c(Cl)c3)c2)cc1)NCCN1CCOCC1 | 806 |
| COc1ccc(-c2onc(C(F)(F)F)c2-c2ccc(Br)cc2)c(O)c1 | 237 |
| CCOC(=O)c1nc(-c2cc(Cl)nc(Cl)c2)[nH]c1NC(=S)NCc1ccc(NS(C)(=O)=O)cc1 | 892 |
| O=C(Nc1cccc(CN2CCN(Cc3ccc(O)cc3)CC2)c1)c1ccc(-c2ccccc2)cc1 | 245 |
| O=C(NC1CCC(N2CCC(Cc3ccc(F)cc3)CC2)CC1)c1cc2ccccc2[nH]1 (stereo not given) | 868 |
| Cc1cccn2c(=O)c3cc(C(=O)NCCc4ccccc4)c(=N)n(CCCOC(C)C)c3nc12 | 481 |
| CCCCCN1CCC(NS(=O)(=O)c2ccc(C(=O)Nc3cccc(C(F)(F)F)c3)cc2)C1 (stereo not given) | 995 |
| O=C(NCCCCN1CCC(c2ccc3ccccc3c2O)CC1)c1ccc(NC(=O)c2ccc(Cl)cc2)cc1 | 1010 |
| CN1CCC(O)(c2ccc(Br)cc2)C(C(O)c2ccc(Br)cc2)C1 (stereo not given) | 731 |
| CN(C)CCCN1CCN(C(=O)c2cc3cc(-c4ccccc4)ccc3n2S(=O)(=O)c2ccccc2)CC1 | 119 |
| C=C(NC(=O)c1cc(C)cc(C)c1)C(=O)OC | 174 |
| CN(C)c1ccc(C2c3[nH]cnc3CCN2C(=O)Nc2cccc([N+](=O)[O-])c2)cc1 (stereo not given) | 966 |
| c1cc(CN2CCN(CCN3CCOCC3)CC2)cc(-c2csc(-c3nc4ccccc4[nH]3)c2)c1 | 452 |
| O=S(=O)(c1ccc(Oc2ccccc2)cc1)N(CCC(O)(C(F)(F)F)C(F)(F)F)Cc1cccc(O)c1 | 491 |
| Oc1cc2ccccc2cc1CNC1CCCCC1 | 586 |
| COc1c(C2CCN(CCCCNC(=O)c3ccc(-c4ccc(Cl)cc4)c(OCC(N)=O)c3)CC2)ccc2c1CCCC2 | 1010 |
| Cc1nc2ccccc2c(O)c1-c1ccc(Cl)cc1 | 999 |
| CCn1cnc2c(N3CCCCS3(=O)=O)cc(C(=O)N[C@@H](Cc3ccccc3)[C@H](O)CNC3CCOCC3)cc21 | 712 |

| SMILES | XC50 [nM] |
| --- | --- |
| Cc1ccccc1NC(=O)C1CSCN1C(=O)OCc1ccccc1 (stereo not given) | 983 |
| c1ccc2c(Nc3ccc(Oc4ccc(Nc5c6ccccc6nc6ccccc56)cc4)cc3)c3ccccc3nc2c1 | 518 |
| O=C(NCCCN1CCC(N2CCCCC2)CC1)c1ccc(N2CCOc3ccccc32)s1 | 732 |
| CCc1c(CCNCCCCCCNCCc2ccc(OC)c(OC)c2C)ccc(OC)c1OC | 1570 |
| CNCCNCc1ccc(-c2ccc(-c3nc4cc(F)ccc4[nH]3)s2)cc1 | 772 |
| Nc1nc(N)c2c3c(cnc2n1)CCCC3 | 770 |
| O=C(Nc1cc(Cl)c(Cl)cc1NC(=O)c1cccc(-c2ccccc2)c1O)c1cccc(-c2ccccc2)c1O | 505 |
| CC(C)c1cc(Oc2c(I)cc(CCNC(=N)N)cc2I)ccc1O | 788 |
| O=C(Nc1ccc([N+](=O)[O-])cc1)Nc1cc(OCC(F)(F)F)cc(OCC(F)(F)F)c1 | 469 |
| O=C(NC1CCN(Cc2ccc3c(c2)OCCO3)CC1)c1ccc(-c2cccc(C(F)(F)F)c2)s1 | 1830 |
| CN=C(N)c1ccc(NC(=O)C=Cc2ccc(C(=O)Nc3ccc(C(N)=NC)cc3)cc2)cc1 | 31.4 |
| Cc1cc(N(C)C2CCN(C)CC2)nc(Nc2ccc(Br)cc2)n1 | 480 |
| Cc1cccc2nc(-c3cccc(-c4ccc(CN5CCC(C(N)=O)CC5)cc4)c3)[nH]c12 | 853 |
| CCc1c[nH]c2c(N3CCCC3=O)cc(C(=O)N[C@@H](Cc3ccccc3)[C@H](O)CNC3CCCCC3)cc12 | 102 |
| Cc1cccc2nc(-c3cccc(-c4ccc(NC(=O)C(C)C(=O)NC(C)C)cc4)c3)[nH]c12 (stereo not given) | 1000 |
| FC(F)(F)c1ccc2[nH]c(-c3cccc(-c4cccc(CNCCc5ccncc5)c4)c3)nc2c1 | 141 |
| CCCCCCN(CCCCCC)CCCCNc1c2ccc(Cl)cc2nc2ccc(OC)cc12 | 535 |
| CCCOc1ccc(CNCCCCCCNCc2ccc(OCCC)c3ccccc23)c2ccccc12 | 410 |
| CCN(CC)CCOc1c(Cl)cc(Cl)cc1CNCCCNc1cc(=O)c2ccccc2[nH]1 | 871 |
| Cc1cc(C)c(C(=O)Nc2ccc3nc(C)cc(N)c3c2)c(C)c1 | 1100 |
| Oc1c(CN2CCCC(C(F)(F)F)C2)cc(Cl)c2ccccc12 (stereo not given) | 1570 |
| CN(C)CC(=O)Nc1ccc(-c2ccc3ccnc(N)c3c2)cc1 | 33.1 |
| COc1cc2ncnc(NCCc3ccccc3Cl)c2cc1OC | 1120 |
| COc1cc(OC)c2c(C)cc(NCCCn3ccnc3)nc2c1 | 804 |

| SMILES | XC50 [nM] |
| --- | --- |
| CCc1cn(CCCOC)c2ccc(C(=O)N[C@@H](Cc3ccccc3)[C@H](O)CNCc3cccc(C(F)(F)F)c3)cc12 | 186 |
| COc1cc(CNCCCNc2cc(=O)c3ccccc3[nH]2)c2c(c1)C(C)CN2C(=O)OC(C)(C)C (stereo not given) | 734 |
| Cc1ccc(NC(=O)c2ccc(CN3CCCN(CCC(C)C)CC3)cc2)cc1C | 913 |
| CC1(C)NC(N)=NC(=N)N1OCCSCc1cc(Cl)sc1Cl | 3.2 |
| Nc1nc(N)c2c(ccc3c2ccn3Cc2cc3c(cc2Cl)OCO3)n1 | 3.2 |
| C=C[C@]1(C)C[C@@H](OC(=O)CSC2CN3CCC2C3)[C@@]2(C)C3C(=O)CC[C@@]3(CC[C@H]2C)[C@@H](C)[C@@H]1O (stereo not given in full) | 689 |
| C[C@H](Cc1ccc(Oc2ccc(C[C@@H](C)NC[C@H](O)c3cccc(Cl)c3)cc2)cc1)NC[C@H](O)c1cccc(Cl)c1 | 560 |
| CC(C)C[C@H](NC(=O)c1ccc(OCCN2CCOCC2)cc1)C(=O)N[C@H](/C=N/N(C)C(=O)c1ccccc1)CCc1ccccc1 | 269 |
| Cc1cc(-c2ccc(CN3Cc4ccccc4C3)cc2)ccc1S(=O)(=O)NCCN1CCCC1 | 966 |
| CC(C)(CNC(=O)[C@@H]1CCCCN1)c1nc(-c2ccc(Cl)c(O)c2)c(-c2ccncc2)[nH]1 | 841 |
| CC1CN(Cc2cccc(F)c2)CCN1c1ccc(NC(=O)c2ccc(F)cc2)cc1 (stereo not given) | 580 |
| COc1ccccc1Oc1c(N(C)S(=O)(=O)c2ccc(C(C)C)cc2)nc(C(F)(F)F)nc1N(C)S(=O)(=O)c1ccc(C(C)C)cc1 | 846 |
| Cc1ccc(Cc2cnc(CN3CCCCC3)c(O)c2)cc1 | 890 |
| Nc1ncc(-c2ccc(F)cc2)c2ccc(-c3cccc(F)c3)cc12 | 227 |
| C=CCc1cc(SC)ccc1Oc1ccc(N)cc1 | 742 |
| CN1CCC(NCc2ccc(-c3cccc(-c4nc5ccccc5[nH]4)c3)cc2)CC1 | 126 |
| O=C(Nc1ccc(C(F)(F)F)cc1)NC1CCN(c2ccnc3ccccc23)C1 (stereo not given) | 87.5 |
| COc1cc2c(cc1S(=O)(=O)c1ccc(NC(=O)c3ccc4ccccc4c3)cc1)CCN(C)CC2 | 797 |
| CC(C)COc1ccc(Cl)cc1Cc1ccc(-c2nc3c(F)cccc3[nH]2)o1 | 806 |
| CCNc1cc(C(=O)N[C@@H](Cc2ccccc2)[C@H](O)CNC23CCC(CC2)C3)cc(N2CCCCS2(=O)=O)c1 | 34.1 |
| Cc1ccc(-c2nc(NC(=O)Nc3ccc(C(F)(F)F)cc3)sc2C)cc1Cl | 659 |
| CCc1cccc(NC(=O)/C=C/c2ccc3c(c2)CN(C)CC3)c1 | 767 |
